# Read-outs that look alike come from different tables or passages of the source.
# How the values were obtained:
# Format in all cases: cell-based
# [1] = system: Mycosphaerella zeae-maydis; test: Broth microdilution MIC of individual antifungals; conditions: individual antifungal, 25% PDB, about 25° C., 72 hours, range over N independent triplicate studies; for MIC: Didymella maydis
# Alternaria solani = test: Broth microdilution MIC of individual antifungals; conditions: for MIC: read-out: Independent MIC
# Aspergillus fumigatus = test: Broth microdilution MIC of individual antifungals; conditions: for MIC: read-out: Independent MIC
# Botrytis cinerea 10-1728 = test: Broth microdilution MIC of individual antifungals; conditions: for MIC: read-out: Independent MIC
# Botrytis cinerea B17 = test: Broth microdilution MIC of individual antifungals; conditions: Botrytis cinerea B17, individual antifungal, 25% PDB, about 25° C., 72 hours, range over N independent triplicate studies; for MIC: read-out: Independent MIC
# Fusarium graminearum = test: microbe, parasite or virus in culture; conditions: for MIC: 72 h, read-out: Independent MIC
# Stachybotrys chartarum = test: Broth microdilution MIC of individual antifungals; conditions: individual antifungal, 25% PDB, about 25° C., 72 hours, range over N independent triplicate studies; for MIC: read-out: Independent MIC
# Pythium aphanodermatum = test: Broth microdilution MIC of individual antifungals; conditions: individual antifungal, 25% PDB, about 25° C., 72 hours, range over N independent triplicate studies
# Mucor sp. = test: Broth microdilution MIC of individual antifungals; conditions: individual antifungal, 25% PDB, about 25° C., 72 hours, range over N independent triplicate studies
# Phytophthora pini = test: Broth microdilution MIC of individual antifungals; conditions: individual antifungal, 25% PDB, about 25° C., 72 hours, range over N independent triplicate studies
# Penicillium chrysogenum = test: Broth microdilution MIC of individual antifungals; conditions: individual antifungal, 25% PDB, about 25° C., 72 hours, range over N independent triplicate studies
# Aureobasidium pullulans = test: Broth microdilution MIC of individual antifungals; conditions: individual antifungal, 25% PDB, about 25° C., 72 hours, range over N independent triplicate studies, read-out: Independent MIC
# Aspergillus flavus = test: Broth microdilution MIC of individual antifungals; conditions: for MIC: read-out: Independent MIC
# Aspergillus niger = test: Broth microdilution MIC of individual antifungals; conditions: individual antifungal, 25% PDB, about 25° C., 72 hours, range over N independent triplicate studies; for MIC: read-out: Independent MIC
# Sclerotinia homoeocarpa = test: Broth microdilution MIC of individual antifungals; conditions: for MIC: Clarireedia homoeocarpa, read-out: Independent MIC
# Fusarium verticillioides = test: Broth microdilution MIC of individual antifungals; conditions: for MIC: read-out: Independent MIC
# [2] = system: Fusarium solani f. sp. pisi (MP VI); test: Broth microdilution MIC of individual antifungals; conditions: Fusarium solani f. sp. pisi (MP VI), individual antifungal, 25% PDB, about 25° C., 72 hours, range over N independent triplicate studies
# Fusarium oxysporum ST33 = test: Broth microdilution MIC of individual antifungals; conditions: individual antifungal, 25% PDB, about 25° C., 72 hours, range over N independent triplicate studies
# [3] = system: Fusarium oxysporum f. sp. lycopersici; test: Broth microdilution MIC of individual antifungals; conditions: individual antifungal, 25% PDB, about 25° C., 72 hours, range over N independent triplicate studies
# Rhizopus sp. = test: Broth microdilution MIC of individual antifungals; conditions: Rhizopus sp., individual antifungal, 25% PDB, about 25° C., 72 hours, range over N independent triplicate studies; for MIC: Rhizopus, 72 h, read-out: Independent MIC
# Rhizoctonia solani = test: Broth microdilution MIC of individual antifungals; conditions: for MIC: read-out: Independent MIC
# [4] = system: Colletotrichum orbiculare; test: Broth microdilution MIC of individual antifungals; conditions: individual antifungal, 25% PDB, about 25° C., 72 hours, range over N independent triplicate studies; for MIC: read-out: Independent MIC
# Candida albicans = test: Broth microdilution MIC of individual antifungals; conditions: individual antifungal, 25% PDB, about 25° C., 72 hours, range over N independent triplicate studies
# Magnaporthe grisea = test: microbe, parasite or virus in culture; conditions: for MIC: Pyricularia oryzae, 72 h, read-out: Independent MIC
# [5] = individual antifungal, 25% PDB, about 25° C., 72 hours, range over N independent triplicate studies
# [6] = Botrytis cinerea 10-1728, individual antifungal, 25% PDB, about 25° C., 72 hours, range over N independent triplicate studies
# [7] = Sclerotinia homoeocarpa, individual antifungal, 25% PDB, about 25° C., 72 hours, range over N independent triplicate studies
# [8] = 101728, Botrytis cinerea 10-1728, individual antifungal, 25% PDB, about 25° C., 72 hours, range over N independent triplicate studies
smiles,measurement,setting,value
"CO/C=C(/C(=O)OC)c1ccccc1Oc1cc(Oc2ccccc2C#N)ncn1 [Azoxystrobin, azoxystrobin]",Independent MIC,[1],20 µg/mL
same,Independent MIC,Alternaria solani; [5],100 µg/mL
same,Independent MIC,Aspergillus fumigatus; [5],(50-100) μg/mL
same,Independent MIC,Botrytis cinerea 10-1728; [6],(110-400) μg/mL
same,Independent MIC,Botrytis cinerea B17,(12.5-25)^ μg/mL
same,Independent MIC,"Fusarium graminearum; Fusarium graminearum, individual antifungal, 25% PDB, about 25° C., 72 hours, range over N independent triplicate studies",400 µg/mL
same,Independent MIC,Stachybotrys chartarum,(25-50) μg/mL
same,Independent MIC,Pythium aphanodermatum,6.25 µg/mL
same,Independent MIC,Mucor sp.,200 µg/mL
same,Independent MIC,Phytophthora pini,100 µg/mL
same,Independent MIC,Penicillium chrysogenum,(0.39-1.5) μg/mL
"Nc1ccc2c(c1)COB2O [B2, 5-Amino-1,3-dihydro-2,1-benzoxaborol-1-ol]",MIC,[1],> 32 µg/mL
same,MIC,Alternaria solani; [5],> 32 µg/mL
same,MIC,Aureobasidium pullulans,> 32 µg/mL
same,MIC,Aspergillus flavus; [5],> 32 µg/mL
same,MIC,Aspergillus fumigatus; [5],> 32 µg/mL
same,MIC,Aspergillus niger,> 32 µg/mL
same,MIC,Sclerotinia homoeocarpa; [7],> 32 µg/mL
same,MIC,Botrytis cinerea 10-1728; [8],> 32 µg/mL
same,MIC,Botrytis cinerea B17,> 32 µg/mL
same,MIC,Fusarium verticillioides; [5],> 32 µg/mL
same,MIC,[2]; read-out: Independent MIC,> 32 µg/mL
same,MIC,Fusarium oxysporum ST33,> 32 µg/mL
same,MIC,[3],> 32 µg/mL
same,MIC,Stachybotrys chartarum,> 32 µg/mL
same,MIC,Rhizopus sp.,> 32 µg/mL
same,MIC,Mucor sp.,> 32 µg/mL
"Cc1ccc(-c2c(Cl)nc(C#N)n2S(=O)(=O)N(C)C)cc1 [Cyazofamid, cyazofamid]",MIC,[1],100 µg/mL
same,MIC,Sclerotinia homoeocarpa; [7],100 µg/mL
same,MIC,Botrytis cinerea 10-1728; [8],200 to 400 µg/mL
same,MIC,Fusarium graminearum; Fusarium graminearum,100 µg/mL
same,MIC,Fusarium verticillioides; [5],200 µg/mL
same,MIC,Rhizoctonia solani; [5],50 to 100 µg/mL
same,MIC,[4],50 to 100 µg/mL
"CC(C1CC1)C(O)(Cn1cncn1)c1ccc(Cl)cc1 (stereo not drawn) [Cyproconazole, cyproconazole]",MIC,[1],3.12 to 6 µg/mL
same,MIC,Aspergillus flavus; [5],50 to 100 µg/mL
same,MIC,Aspergillus fumigatus; [5],12.5 to 25 µg/mL
same,MIC,Aspergillus niger,25 µg/mL
same,MIC,Sclerotinia homoeocarpa; [7],1.56 to 3.12 µg/mL
same,MIC,Botrytis cinerea 10-1728; [8],0.78 to 2 µg/mL
same,MIC,Candida albicans; read-out: Independent MIC,100 to 400 µg/mL
same,MIC,Fusarium verticillioides; [5],3 to 3.12 µg/mL
same,MIC,Rhizopus sp.,12.5 to 50 µg/mL
same,MIC,Mucor sp.,100 to 200 µg/mL
same,MIC,Rhizoctonia solani; [5],6.25 to 12.5 µg/mL
same,MIC,Penicillium chrysogenum; read-out: Independent MIC,100 µg/mL
same,MIC,[4],6.25 to 12.5 µg/mL
"CCOP(=O)(Sc1ccccc1)Sc1ccccc1 [Edifenphos, edifenphos]",MIC,[1],200 to 400 µg/mL
same,MIC,Alternaria solani; 72 h,200 µg/mL
same,MIC,Aspergillus fumigatus; 72 h,200 µg/mL
same,MIC,Sclerotinia homoeocarpa; 72 h,3.12 to 6.25 µg/mL
same,MIC,"Botrytis cinerea 10-1728; Botrytis cinerea, 101728, 72 h",100 to 200 µg/mL
same,MIC,Fusarium verticillioides; 72 h,200 to 400 µg/mL
same,MIC,Mucor sp.,50 to 100 µg/mL
same,MIC,Magnaporthe grisea,6.25 µg/mL
same,MIC,Phytophthora pini,100 µg/mL
same,MIC,Rhizoctonia solani; 72 h,200 to 400 µg/mL
"CC1(C(=O)Nc2ccc(O)c(Cl)c2Cl)CCCCC1 [Fenhexamid, fenhexamid]",MIC,[1],100 to 200 µg/mL
same,MIC,Alternaria solani; [5],100 to 200 µg/mL
same,MIC,Aureobasidium pullulans,100 µg/mL
same,MIC,Aspergillus flavus; 72 h,3.12 to 6.25 µg/mL
same,MIC,Aspergillus fumigatus; [5],400 µg/mL
same,MIC,Sclerotinia homoeocarpa; [7],64 µg/mL
same,MIC,Botrytis cinerea 10-1728; [8],200 µg/mL
same,MIC,Botrytis cinerea B17,4 µg/mL
same,MIC,Fusarium graminearum; Fusarium graminearum,25 to 50 µg/mL
same,MIC,Stachybotrys chartarum,12.5 µg/mL
same,MIC,Pythium aphanodermatum,0.78 to 0.8 µg/mL
same,MIC,Mucor sp.,100 µg/mL
same,MIC,Magnaporthe grisea,3.12 µg/mL
same,MIC,Phytophthora pini,50 µg/mL
same,MIC,[4],100 to 200 µg/mL
"[Cl][Sn]([c]1ccccc1)([c]1ccccc1)[c]1ccccc1 [Fentin Chloride, fentin chloride]",Independent MIC,[1],50 µg/mL
same,Independent MIC,Alternaria solani; [5],(10-12.5) μg/mL
same,Independent MIC,Aspergillus flavus; [5],(0.78-1) μg/mL
same,Independent MIC,Aspergillus fumigatus; [5],0.78 µg/mL
same,Independent MIC,Aspergillus niger,(0.78-1) μg/mL
same,Independent MIC,Sclerotinia homoeocarpa; [7],12.5 µg/mL
same,Independent MIC,Botrytis cinerea 10-1728; [6],(50-100) μg/mL
same,Independent MIC,Candida albicans,(0.78-1.56) μg/mL
same,Independent MIC,Fusarium graminearum,(50-200) μg/mL
same,Independent MIC,Fusarium verticillioides; [5],(6.25-12.5) μg/mL
same,Independent MIC,[2],(0.78-3.12) μg/mL
same,Independent MIC,Rhizopus sp.,(0.39-0.78) μg/mL
same,Independent MIC,Mucor sp.,(1-1.56) μg/mL
same,Independent MIC,Magnaporthe grisea,1.25 µg/mL
same,Independent MIC,Phytophthora pini,0.098 µg/mL
same,Independent MIC,Rhizoctonia solani; [5],(12.5-25)^ μg/mL
same,Independent MIC,Penicillium chrysogenum,(0.1-0.2) μg/mL
same,Independent MIC,[4],1.56 µg/mL

# — patent publication US9737075B2, “Synergistic benzoxaborole-containing anti-fungicidal composition” (The Penn State Research Foundation, priority 2015, dated 2017)
